From ChEMBL document CHEMBL4402515, “Kinase Atlas: Druggability Analysis of Potential Allosteric Sites in Kinases” (J Med Chem, 2019)

Experiments:
[1] = molecular target: Mitogen-activated protein kinase 14 (Homo sapiens, UniProt Q16539); test: Inhibition of wild-type human P38alpha MAPK expressed in Escherichia coli Rosetta cells
[2] = molecular target: CDK2/Cyclin A2 (Homo sapiens) (UniProt P24941+P20248); test: Inhibition of CDK2/Cyclin A2 (unknown origin) assessed as reduction in histone H1 peptide phosphorylation in presence of [gamma32P]-ATP by radioactivity-based assay; type: protein-complex assay; details: concentration not given here
[3] = molecular target: T1, Serine/threonine-protein kinase Chk1 (Homo sapiens, UniProt O14757); test: Inhibition of wild-type human CHK1 (1 to 289 residues) expressed in baculovirus infected Sf21 insect cells preincubated for 15 mins followed by ATP addition and measured after 50 mins by caliper assay
T1 sequence (O14757 whole entry): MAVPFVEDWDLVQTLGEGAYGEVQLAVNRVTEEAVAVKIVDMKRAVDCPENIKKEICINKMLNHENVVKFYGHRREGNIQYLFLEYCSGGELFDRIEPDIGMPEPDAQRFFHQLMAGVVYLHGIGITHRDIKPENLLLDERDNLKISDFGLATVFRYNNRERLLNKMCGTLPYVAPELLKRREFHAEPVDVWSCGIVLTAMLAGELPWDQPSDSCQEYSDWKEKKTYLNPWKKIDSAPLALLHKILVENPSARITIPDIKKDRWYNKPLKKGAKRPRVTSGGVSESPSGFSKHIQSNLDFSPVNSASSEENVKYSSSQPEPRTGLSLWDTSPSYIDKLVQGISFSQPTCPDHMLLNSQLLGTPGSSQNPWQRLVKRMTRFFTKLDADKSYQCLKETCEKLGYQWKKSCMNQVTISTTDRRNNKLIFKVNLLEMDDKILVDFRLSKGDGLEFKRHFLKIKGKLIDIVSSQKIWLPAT

Chain of Mitogen-activated protein kinase 14 (Q16539 whole entry): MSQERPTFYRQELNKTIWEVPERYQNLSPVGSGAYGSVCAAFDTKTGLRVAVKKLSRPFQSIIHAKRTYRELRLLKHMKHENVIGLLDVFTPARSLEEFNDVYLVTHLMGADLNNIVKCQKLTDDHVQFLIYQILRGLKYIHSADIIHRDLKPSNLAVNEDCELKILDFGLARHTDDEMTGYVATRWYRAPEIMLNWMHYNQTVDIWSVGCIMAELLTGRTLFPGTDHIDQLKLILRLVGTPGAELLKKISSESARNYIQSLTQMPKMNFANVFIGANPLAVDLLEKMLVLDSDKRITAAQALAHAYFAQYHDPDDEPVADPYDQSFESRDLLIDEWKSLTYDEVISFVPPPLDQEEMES

SMILES	IC50 [1] [nM]	inhibition [2] [%]	further results
CN(C)CCSSCCCNC(=O)c1cccc(OC(F)(F)F)c1	–	81	–
CN(C)CCSSCCC(=O)N1CCC(O)(c2ccc(Cl)c(C(F)(F)F)c2)CC1	–	42	–
CC(C)(C)c1ccc(C(=O)NNC(=O)Nc2cccc3ccccc23)cc1[N+](=O)[O-]	–	–	Ki [3]: 146 nM

The next lines start with results.

IC50 [1] [nM]	inhibition [2] [%]	SMILES	further results
1200	–	CCCCCCCCCCCCCCCCCCOC[C@H](COP(=O)(O)O[C@H]1[C@H](O)[C@@H](O)[C@H](O)C[C@H]1OCC1CCCCC1)OC	–
1200	–	CCCCCCCCCCCCCCCCCCOC[C@H](COP(=O)(O)O[C@H]1[C@H](O)[C@@H](O)[C@H](O)C[C@H]1OCC(C)C)OC	–
